Measurements: patent publication EP0728482A2, “Use of hcp specific compounds to enhance erythropoiesis” (SMITHKLINE BEECHAM CORPORATION, priority 1995, dated 1996)

Molecular target: T1, human Grb2 SH2 domain (Homo sapiens, UniProt P62993)
T1 construct: made in house; host or cells: E. coli (pGEX-2T)
Assay: ELISA-based SH2 domain / pY peptide binding assay, Grb2 SH2 domain
Procedure: The inhibitory activity of compounds at the different human SH2 domains was determined in vitro using SH2 domains expressed as fusion proteins in E. coli. The SH2 domains used herein were the human forms of the src SH2 domain, Grb2 SH2 domain, lck SH2 domain, fyn SH2 domain, SH-PTP2 SH2 domain, p85 SH2 domain and hcp SH2 domain.
Fusion proteins having the structure GST-X-SH2 were prepared as described in the GST gene fusion kit system available from Pharmacia (New Jersey). GST is the tagging sequence glutathione s-transferase epitope (SEQ ID NO: 8) for fyn, Grb2 and SH-PTP2 and is the tagging sequence glutathione s-transferase epitope (SEQ ID NO: 9) for p85. SH2 refers to the SH2 domains of fyn, Grb2, p85 and SH-PTP2 which were expressed and purified using glutathione Sepharose 4B (Pharmacia) according to "Current Protocols in Molecular Biology", ed. FM Ausubel et al., pub. John Wiley and Sons, Inc., (1995), p 16.7.1. X is an appropriate linker, preferably of 6 to 21 base pairs, used to keep the SH2 construct in frame and complement cloning. As such, the sequence of X is not critical. One skilled in the art can readily construct the appropriate linker. The DNA sequence encoding each GST-X-SH2 fusion protein was designed such that the indicated restriction sites (BamH1 and EcoRI) flank the SH2 region. […]

T1 sequence (P62993 58-159): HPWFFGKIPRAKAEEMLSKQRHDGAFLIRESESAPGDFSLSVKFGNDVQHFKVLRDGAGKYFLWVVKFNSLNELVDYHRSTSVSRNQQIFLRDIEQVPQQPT

Ki (Ki calculated from IC50 with the expanded equation): > 1000 µM | IC50 (inhibition of binding of 0.1 uM biotinylated pY peptide to SH2 domain fusion protein): > 300 µM
Compound: CCCCCCNC(=O)[C@H]1CC[C@H](CNC(=O)c2ccc(C(=O)c3ccc(C(=O)O)cc3)cc2)CC1 [Compound 6, 4-carboxy-benzophenone-4-carboxamido-trans-4-methyl-cyclohexyl-N-hexyl carboxamide]
